The target in experiment [1] is T1, human TTK (Homo sapiens, UniProt P33981).
T1 construct: amino terminal GST fusion of full length human TTK; purchased Invitrogen
T1 sequence (P33981 1-857): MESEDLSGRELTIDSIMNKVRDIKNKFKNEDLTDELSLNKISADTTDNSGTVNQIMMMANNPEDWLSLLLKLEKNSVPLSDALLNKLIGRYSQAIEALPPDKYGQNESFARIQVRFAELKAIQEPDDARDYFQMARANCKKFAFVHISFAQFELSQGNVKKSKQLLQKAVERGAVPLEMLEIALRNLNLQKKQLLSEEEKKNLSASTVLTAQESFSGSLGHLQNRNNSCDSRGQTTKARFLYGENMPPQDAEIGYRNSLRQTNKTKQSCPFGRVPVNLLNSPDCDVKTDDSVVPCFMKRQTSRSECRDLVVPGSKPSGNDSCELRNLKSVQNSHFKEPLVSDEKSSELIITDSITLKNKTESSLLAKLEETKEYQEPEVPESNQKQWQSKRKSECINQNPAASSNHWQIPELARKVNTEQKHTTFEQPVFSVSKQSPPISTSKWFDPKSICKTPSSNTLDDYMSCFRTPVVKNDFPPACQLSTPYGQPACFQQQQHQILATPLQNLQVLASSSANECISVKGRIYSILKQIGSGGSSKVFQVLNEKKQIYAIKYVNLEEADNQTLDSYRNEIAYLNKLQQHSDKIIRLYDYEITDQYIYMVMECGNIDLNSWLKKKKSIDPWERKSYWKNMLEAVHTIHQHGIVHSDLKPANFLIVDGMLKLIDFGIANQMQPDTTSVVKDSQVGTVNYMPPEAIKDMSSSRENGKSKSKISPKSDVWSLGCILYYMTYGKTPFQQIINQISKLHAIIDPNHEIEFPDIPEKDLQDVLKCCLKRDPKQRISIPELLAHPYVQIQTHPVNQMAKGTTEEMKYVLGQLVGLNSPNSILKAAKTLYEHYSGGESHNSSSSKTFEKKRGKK
Nature of the experiment: TTK inhibition assay (indirect ELISA). The class given is biochemical. Particulars: GST-TTK 0.68 nM, 16 μM ATP; read-out: IC50 Ranges TTK. On the technique in general: An ELISA detects its analyte on a solid surface through an enzyme-linked reagent.

Experiment [2] deals with T2, human PLK4 (Homo sapiens, UniProt O00444).
T2 construct: amino terminal GST fusion of residues 1-391 of human PLK4; made in house; host or cells: E. coli
T2 sequence (O00444 1-391): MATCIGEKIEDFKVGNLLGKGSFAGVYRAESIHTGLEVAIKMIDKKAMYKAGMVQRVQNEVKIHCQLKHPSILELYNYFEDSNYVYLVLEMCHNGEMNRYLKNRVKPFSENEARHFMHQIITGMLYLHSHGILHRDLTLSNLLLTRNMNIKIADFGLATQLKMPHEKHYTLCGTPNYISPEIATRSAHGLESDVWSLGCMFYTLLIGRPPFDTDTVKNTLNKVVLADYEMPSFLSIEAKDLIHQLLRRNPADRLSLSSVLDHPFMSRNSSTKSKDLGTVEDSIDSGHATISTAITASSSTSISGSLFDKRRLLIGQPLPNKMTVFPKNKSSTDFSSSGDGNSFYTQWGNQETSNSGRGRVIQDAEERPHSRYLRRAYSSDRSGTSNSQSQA
Nature of the experiment: PLK4 inhibition assay (indirect ELISA). The class given is biochemical. Conditions: GST-PLK4 4 nM, 15 μM ATP; read-out: IC50 Ranges PLK4. An outline of the steps: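 Compounds were tested either at a single 10 μM dose or across 10-point titrations (typically 0.5 to 0.001 μM), preincubated 15 min with 4 nM GST-PLK4 (human 1-391, dephosphorylated) before 15 μM ATP was added. MBP substrate phosphorylation over 30 min, pH 7.5 HEPES/MgCl2 buffer, read by HRP/TMB ELISA (450 nm). % inhibition vs. high-activity control; IC50 by logistic fit.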

In experiment [3] the target is T3, Aurora B (Homo sapiens, UniProt Q96GD4).
T3 construct: purchased Invitrogen PV3970
As to the kind of experiment: Aurora B inhibition assay (Z-Lyte). Format: biochemical. Particulars: 28 nM Aurora B, 128 μM ATP; read-out: IC50 Ranges Aurora B. The method, then: Aurora B inhibition was determined using the Z-Lyte assay kit from Invitrogen. The assay was performed using the recommended manufacturer's instructions with 128 μM ATP and 28 nM Aurora B (Invitrogen cat #PV3970). The % inhibition values were determined according to the manufacturer's directions and IC50 values were obtained using a non-linear 4 point logistic curve fit (XLfit4, IDBS)

Experiment [4] has as its system MDA-MB-231 breast cancer cells. As to the kind of experiment: Cell growth inhibition, Sulforhodamine B assay, MDA-MB-231. Format: cell-based. Particulars: Homo sapiens, 120 h, 5 days culture, SRB assay, read-out: Cell Line GI50 Range MDA-MB-231. (In general: The SRB assay estimates cell density from bound dye.)
The test system of experiment [5] is MDA-MB-468 breast cancer cells. As to the kind of experiment: Cell growth inhibition, Sulforhodamine B assay, MDA-MB-468. The class given is cell-based. Particulars: Homo sapiens, 120 h, 5 days culture, SRB assay, read-out: Cell Line GI50 Range MDA-MB-468.
Experiment [6] relates to HCT116 colon cancer cells. Nature of the experiment: Cell growth inhibition, Sulforhodamine B assay, HCT116. Format: cell-based. Conditions: Homo sapiens, HCT-116, 120 h, 5 days culture, SRB assay, read-out: Cell Line GI50 Range HCT116.

T3 sequence (Q96GD4 whole entry): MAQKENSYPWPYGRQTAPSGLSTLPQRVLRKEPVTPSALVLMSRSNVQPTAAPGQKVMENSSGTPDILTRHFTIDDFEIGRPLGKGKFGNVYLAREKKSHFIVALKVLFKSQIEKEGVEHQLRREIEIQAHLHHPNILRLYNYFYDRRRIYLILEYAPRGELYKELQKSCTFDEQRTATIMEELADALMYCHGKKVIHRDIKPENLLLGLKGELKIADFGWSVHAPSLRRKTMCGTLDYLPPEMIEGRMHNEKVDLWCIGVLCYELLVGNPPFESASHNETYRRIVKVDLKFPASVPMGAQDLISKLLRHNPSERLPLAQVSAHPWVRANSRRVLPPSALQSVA

`O=C(Nc1ccc2[nH]nc(-c3ccc(CN4CCOCC4)cc3)c2c1)C(c1ccsc1)N1CCCC1` (stereo not drawn) [Example A3, N-(3-(4-(morpholinomethyl)phenyl)-1H-indazol-5-yl)-2-(pyrrolidin-1-yl)-2-(thiophen-3-yl)acetamide]: the IC50 in experiment [1], in experiment [2] and in experiment [3] was not above 5 µM each time. Besides, the GI50 in experiment [4], in experiment [5] and in experiment [6] was not above 5 µM each time.

Turning to `CN(C)CCOc1ccc(-c2n[nH]c3ccc(NC(=O)C(c4ccsc4)N4CCCC4)cc23)cc1` (stereo not drawn) [Example A5, N-(3-(4-(2-(dimethylamino)ethoxy)phenyl)-1H-indazol-5-yl)-2-(pyrrolidin-1-yl)-2-(thiophen-3-yl)acetamide], the IC50 was not above 5 µM in experiment [1], not above 5 µM in experiment [2] and 5 to 50 µM in experiment [3]. Also, the GI50 in experiment [4], in experiment [5] and in experiment [6] was not above 5 µM in each case.

For `O=C(Nc1ccc2[nH]nc(-c3ccc(CCN4CCOCC4)cc3)c2c1)C(c1ccsc1)N1CCCC1` (stereo not drawn) [Example A6, N-(3-(4-(2-morpholinoethyl)phenyl)-1H-indazol-5-yl)-2-(pyrrolidin-1-yl)-2-(thiophen-3-yl)acetamide], the IC50 in experiment [1], in experiment [2] and in experiment [3] was not above 5 µM in each case. The GI50 in experiment [4], in experiment [5] and in experiment [6] was not above 5 µM in each case.

Turning to `COc1cc(-c2n[nH]c3ccc(NC(=O)C(c4ccsc4)N4CCCC4)cc23)ccc1OC1CCNCC1` (stereo not drawn) [Example A8, N-(3-(3-methoxy-4-(piperidin-4-yloxy)phenyl)-1H-indazol-5-yl)-2-(pyrrolidin-1-yl)-2-(thiophen-3-yl)acetamide], the IC50 in experiment [1], in experiment [2] and in experiment [3] was not above 5 µM in each case. Further, the GI50 in experiment [4], in experiment [5] and in experiment [6] was not above 5 µM each time.

Take `COc1cc(-c2n[nH]c3ccc(NC(=O)C(c4ccsc4)N4CCCC4)cc23)ccc1N1CCN(C)CC1` (stereo not drawn) [Example A10, N-(3-(3-methoxy-4-(4-methylpiperazin-1-yl)phenyl)-1H-indazol-5-yl)-2-(pyrrolidin-1-yl)-2-(thiophen-3-yl)acetamide]: the IC50 in experiment [1], in experiment [2] and in experiment [3] was not above 5 µM in each case. The GI50 in experiment [4], in experiment [5] and in experiment [6] was not above 5 µM in each case.

Consider `CN1CCN(c2ccc(-c3n[nH]c4ccc(NC(=O)C5CCCc6ccccc65)cc34)cc2)CC1` (stereo not drawn) [Example A11, N-(3-(4-(4-methylpiperazin-1-yl)phenyl)-1H-indazol-5-yl)-1,2,3,4-tetrahydronaphthalene-1-carboxamide], for which the IC50 in experiment [1], in experiment [2] and in experiment [3] was not above 5 µM throughout. Also, the GI50 in experiment [4], in experiment [5] and in experiment [6] was not above 5 µM throughout.

For the compound `COc1cc(-c2n[nH]c3ccc(C(=O)NC(c4ccccc4)C4CC4)cc23)ccc1OC1CCNCC1` (stereo not drawn) [Example A13, N-(cyclopropyl(phenyl)methyl)-3-(3-methoxy-4-(piperidin-4-yloxy)phenyl)-1H-indazole-5-carboxamide], the IC50 in experiment [1], in experiment [2] and in experiment [3] was not above 5 µM in each case. For the same compound, the GI50 in experiment [4], in experiment [5] and in experiment [6] was not above 5 µM throughout.

On to `CN1CCc2cc(-c3n[nH]c4ccc(NC(=O)C(c5ccsc5)N5CCCC5)cc34)ccc21` (stereo not drawn) [Example A16, N-(3-(1-methylindolin-5-yl)-1H-indazol-5-yl)-2-(pyrrolidin-1-yl)-2-(thiophen-3-yl)acetamide], for which the IC50 in experiment [1], in experiment [2] and in experiment [3] was not above 5 µM in each case. Moreover, the GI50 in experiment [4], in experiment [5] and in experiment [6] was not above 5 µM throughout.

On to `CN1CCOc2cc(-c3n[nH]c4ccc(NC(=O)C(c5ccsc5)N5CCCC5)cc34)ccc21` (stereo not drawn) [Example A17, N-(3-(4-methyl-3,4-dihydro-2H-benzo[b][1,4]oxazin-7-yl)-1H-indazol-5-yl)-2-(pyrrolidin-1-yl)-2-(thiophen-3-yl)acetamide], for which the IC50 in experiment [1], in experiment [2] and in experiment [3] was not above 5 µM in each case. Besides, the GI50 in experiment [4], in experiment [5] and in experiment [6] was not above 5 µM throughout.

Turning to `COc1cc(-c2n[nH]c3ccc(C(=O)NC(c4ccccc4)C4CC4)cc23)ccc1OC1CCN(C)CC1` (stereo not drawn) [Example A19, N-(cyclopropyl(phenyl)methyl)-3-(3-methoxy-4-((1-methylpiperidin-4-yl)oxy)phenyl)-1H-indazole-5-carboxamide], the IC50 in experiment [1], in experiment [2] and in experiment [3] was not above 5 µM each time. Besides, the GI50 in experiment [4], in experiment [5] and in experiment [6] was not above 5 µM each time.

In the case of `O=C(Nc1ccc2[nH]nc(-c3ccc4c(c3)OCCCO4)c2c1)C(c1ccsc1)N1CCCC1` (stereo not drawn) [Example A20, N-(3-(3,4-dihydro-2H-benzo[b][1,4]dioxepin-7-yl)-1H-indazol-5-yl)-2-(pyrrolidin-1-yl)-2-(thiophen-3-yl)acetamide], the IC50 in experiment [1], in experiment [2] and in experiment [3] was not above 5 µM throughout. For the same compound, the GI50 in experiment [4], in experiment [5] and in experiment [6] was not above 5 µM each time.

Turning to `COc1cc(-c2n[nH]c3ccc(NC(=O)C(c4ccsc4)N4CCCC4)cc23)ccc1OC1CCN(C)CC1` (stereo not drawn) [Example A21, N-(3-(3-methoxy-4-((1-methylpiperidin-4-yl)oxy)phenyl)-1H-indazol-5-yl)-2-(pyrrolidin-1-yl)-2-(thiophen-3-yl)acetamide], the IC50 in experiment [1], in experiment [2] and in experiment [3] was not above 5 µM each time. The GI50 in experiment [4], in experiment [5] and in experiment [6] was not above 5 µM each time.

Take `O=C(Nc1ccc2[nH]nc(-c3ccc(N4CCOCC4)cc3)c2c1)C1CCCc2ccccc21` (stereo not drawn) [Example A22, N-(3-(4-morpholinophenyl)-1H-indazol-5-yl)-1,2,3,4-tetrahydronaphthalene-1-carboxamide]: the results for the IC50 in experiment [1], in experiment [2] and in experiment [3] were not above 5 µM, not above 5 µM and 5 to 50 µM, respectively. Also, the concentration for 50% growth inhibition (GI50) in experiment [4], in experiment [5] and in experiment [6] was not above 5 µM each time.

Broadly, the IC50 is the concentration that gives 50% inhibition. For orientation: GI50 means the concentration giving 50% growth inhibition.

The record behind these values is patent US20140051679A1, “KINASE INHIBITORS AND METHOD OF TREATING CANCER WITH SAME” (UNIVERISTY HEALTH NETWORKS, priority 2011, published 2014).
